We go through 11 compounds from patent US7462600B2, “Macrolides” (Pfizer Inc, priority 2004, dated 2008).

Common to all, as to type: cell-based
Experiment [1] relates to Streptococcus pyogenes 1079. Nature of the experiment: MIC, microtiter broth dilution (NCCLS M100-S14), S. pyogenes 1079 (ermB). Conditions: Streptococcus pyogenes 1079. The method, boiled down: (§1)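 Steps: dissolve compound in DMSO to 40 mg/ml stock; dilute in broth across microtiter trays; inoculate strains; record MIC per NCCLS M100-S14.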
A general note: Dilution methods test growth across graded concentrations, often in twofold steps.

For experiment [2], the system named is Streptococcus pneumoniae 1016. Nature of the experiment: MIC, microtiter broth dilution (NCCLS M100-S14), S. pneumoniae 1016 (susceptible). Conditions: Streptococcus pneumoniae 1016. In outline:
as §1

Experiment [3] deals with Streptococcus pneumoniae 1095. To be noted: Streptococcus pneumoniae 1095; microtiter broth dilution. The method, boiled down: as §1
Experiment [4] deals with Streptococcus pneumoniae 1175. Conditions: Streptococcus pneumoniae 1175; microtiter broth dilution. The method, boiled down: as §1
Experiment [5] has as its system Haemophilus influenzae 1218. Nature of the experiment: MIC, microtiter broth dilution (NCCLS M100-S14), H. influenzae 1218 (susceptible). Conditions: Haemophilus influenzae 1218. The method, boiled down:
as §1

Converted amounts (≈) assume the structure as drawn. A value given as a limit tells only on which side of the number the result lay.

Take `CCCC(c1ccnc2ccccc12)N1CC(N2C(=O)OC3(C)C(CC)OC(=O)C(C)C(=O)C(C)C(OC4OC(C)CC(N(C)C)C4O)C(C)(OC)CC(C)C(=O)C(C)C23)C1` (stereo not shown) [Example 1.65, 3-descladinosyl-11,12-dideoxy-6-O-methyl-3-oxo-12,11-(oxycarbonyl-(1-(1-(quinolin4-yl)-butyl)-azetidin-3-yl)-imino)-erythromycin A]: the “MIC S. pyogenes 1079” value in experiment [1] is 8 µg/mL (≈ 9.4 µM). In addition, in experiment [2], the “MIC S. pneumo. 1016” value is under 0.06 µg/mL. In experiment [3], the “MIC S. pneumo. 1095” value was under 0.06 µg/mL. The “MIC S. pneumo. 1175” value in experiment [4] is under 0.06 µg/mL. In addition, in experiment [5], the “MIC H. influenzae 1218” value was found to be 1 µg/mL (≈ 1.17 µM).
In the case of `CCC1OC(=O)C(C)C(=O)C(C)C(OC2OC(C)CC(N(C)C)C2O)C(C)(OC)CC(C)C(=O)C(C)C2N(C3CN(C(c4ccccc4)c4ccncc4)C3)C(=O)OC12C` (stereo not shown) [Example 1.69, 3-descladinosyl-11,12-dideoxy-6-O-methyl-3-oxo-12,11-(oxycarbonyl-(1-(phenyl-(pyridin-4-yl)-methyl)-azetidin-3-yl)-imino)erythromycin A], the “MIC S. pyogenes 1079” value in experiment [1] was determined as 8 µg/mL (≈ 9.58 µM). Further, the “MIC S. pneumo. 1016” value in experiment [2] was under 0.06 µg/mL. Besides, the “MIC S. pneumo. 1095” value in experiment [3] is under 0.06 µg/mL. For the same compound, in experiment [4], the “MIC S. pneumo. 1175” value was under 0.06 µg/mL. Besides, in experiment [5], the “MIC H. influenzae 1218” value was 1 µg/mL (≈ 1.2 µM).
Turning to `CCC1OC(=O)C(C)C(=O)C(C)C(OC2OC(C)CC(N(C)C)C2O)C(C)(OC)CC(C)C(=O)C(C)C2N(C3CN(Cc4ccc(OC)c5ncccc45)C3)C(=O)OC12C` (stereo not shown) [Example 1.70, 3-descladinosyl-11,12-dideoxy-6-O-methyl-3-oxo-12,11-(oxycarbonyl-(1-(8-methoxyquinoline-5-methyl)-azetidin-3-yl)-imino)-erythromycin A], the “MIC S. pyogenes 1079” value in experiment [1] was 2 µg/mL (≈ 2.38 µM). Also, in experiment [2], the “MIC S. pneumo. 1016” value is under 0.063 µg/mL. Further, in experiment [3], the “MIC S. pneumo. 1095” value was under 0.063 µg/mL. Besides, the “MIC S. pneumo. 1175” value in experiment [4] is under 0.063 µg/mL. For the same compound, the “MIC H. influenzae 1218” value in experiment [5] worked out at 1 µg/mL (≈ 1.19 µM).
In the case of `CCC1OC(=O)C(C)C(=O)C(C)C(OC2OC(C)CC(N(C)C)C2O)C(C)(OC)CC(C)C(=O)C(C)C2N(C3CN(Cc4c(OC)cnc5ccccc45)C3)C(=O)OC12C` (stereo not shown) [Example 1.71, 3-descladinosyl-11,12-dideoxy-6-O-methyl-3-oxo-12,11-(oxycarbonyl-(1-(3-methoxyquinoline-4-methyl)-azetidin-3-yl)-imino)-erythromycin A], the “MIC S. pyogenes 1079” value in experiment [1] is under 0.063 µg/mL. In addition, in experiment [2], the “MIC S. pneumo. 1016” value is under 0.063 µg/mL. In experiment [3], the “MIC S. pneumo. 1095” value was under 0.063 µg/mL. Further, in experiment [4], the “MIC S. pneumo. 1175” value is under 0.063 µg/mL. The “MIC H. influenzae 1218” value in experiment [5] was 1 µg/mL (≈ 1.19 µM).
Consider `CCC1OC(=O)C(C)C(=O)C(C)C(OC2OC(C)CC(N(C)C)C2O)C(C)(OC)CC(C)C(=O)C(C)C2N(C3CN(Cc4c(OC)cnc5ncccc45)C3)C(=O)OC12C` (stereo not shown) [Example 1.72, 3-descladinosyl-11,12-dideoxy-6-O-methyl-3-oxo-12,11-(oxycarbonyl-(1-(3-methoxy-1,8-naphthyridine-4-methyl)-azetidin-3-yl)-imino)-erythromycin A], for which the “MIC S. pyogenes 1079” value in experiment [1] was under 0.063 µg/mL. Moreover, the “MIC S. pneumo. 1016” value in experiment [2] is under 0.063 µg/mL. The “MIC S. pneumo. 1095” value in experiment [3] was under 0.063 µg/mL. Besides, the “MIC S. pneumo. 1175” value in experiment [4] was under 0.063 µg/mL. In addition, the “MIC H. influenzae 1218” value in experiment [5] came to 1 µg/mL (≈ 1.19 µM).
Regarding `CC[C@H]1OC(=O)[C@H](C)C(=O)[C@H](C)[C@@H](O[C@@H]2O[C@H](C)C[C@H](N(C)C)[C@H]2O)[C@](C)(OC)C[C@@H](C)C(=O)[C@H](C)[C@H]2N(C3CN(Cc4c(C#N)cnc5ccccc45)C3)C(=O)O[C@]12C` [Example 1.73, 3-descladinosyl-11,12-dideoxy-6-O-methyl-3-oxo-12,11-(oxycarbonyl-(1-(quinoline-3-carbonitrile-4-methyl)-azetidin-3-yl)-imino)erythromycin A], the “MIC S. pyogenes 1079” value in experiment [1] stood at 0.125 µg/mL (≈ 0.15 µM). Further, in experiment [2], the “MIC S. pneumo. 1016” value is under 0.063 µg/mL. Moreover, the “MIC S. pneumo. 1095” value in experiment [3] was under 0.063 µg/mL. In experiment [4], the “MIC S. pneumo. 1175” value is under 0.063 µg/mL. Also, the “MIC H. influenzae 1218” value in experiment [5] was 2 µg/mL (≈ 2.4 µM).
For the compound `CC[C@H]1OC(=O)[C@H](C)C(=O)[C@H](C)[C@@H](O[C@@H]2O[C@H](C)C[C@H](N(C)C)[C@H]2O)[C@](C)(OC)C[C@@H](C)C(=O)[C@H](C)[C@H]2N(C3CN(Cc4c(Br)cnc5nccnc45)C3)C(=O)O[C@]12C` [Example 1.74, 3-descladinosyl-11,12-dideoxy-6-O-methyl-3-oxo-12,11-(oxycarbonyl-(1-(7-bromopyrido[3,2-b]pyrazine-8-methyl)-azetidin-3-yl)imino)-erythromycin A], in experiment [1], the “MIC S. pyogenes 1079” value was found to be 0.5 µg/mL (≈ 0.562 µM). Further, the “MIC S. pneumo. 1016” value in experiment [2] was under 0.063 µg/mL. Moreover, in experiment [3], the “MIC S. pneumo. 1095” value is under 0.063 µg/mL. Besides, in experiment [4], the “MIC S. pneumo. 1175” value was under 0.063 µg/mL. Moreover, the “MIC H. influenzae 1218” value in experiment [5] stood at 1 µg/mL (≈ 1.12 µM).
With `CCC1OC(=O)C(C)C(=O)C(C)C(OC2OC(C)CC(N(C)C)C2O)C(C)(OC)CC(C)C(=O)C(C)C2N(C3CN(Cc4c(Br)cnc5ncccc45)C3)C(=O)OC12C` (stereo not shown) [Example 1.75, 3-descladinosyl-11,12-dideoxy-6-O-methyl-3-oxo-12,11-(oxycarbonyl-(1-(3-bromo-1,8-naphthyridine-4-methyl)-azetidin-3-yl)-imino)-erythromycin A], in experiment [1], the “MIC S. pyogenes 1079” value was under 0.063 µg/mL. In experiment [2], the “MIC S. pneumo. 1016” value was under 0.063 µg/mL. For the same compound, in experiment [3], the “MIC S. pneumo. 1095” value is under 0.063 µg/mL. The “MIC S. pneumo. 1175” value in experiment [4] was under 0.063 µg/mL. The “MIC H. influenzae 1218” value in experiment [5] worked out at 1 µg/mL (≈ 1.12 µM).
Regarding `CCC1OC(=O)C(C)C(=O)C(C)C(OC2OC(C)CC(N(C)C)C2O)C(C)(OC)CC(C)C(=O)C(C)C2N(C3CN(Cc4c(Cl)cnc5ncccc45)C3)C(=O)OC12C` (stereo not shown) [Example 1.76, 3-descladinosyl-11,12-dideoxy-6-O-methyl-3-oxo-12,11-(oxycarbonyl-(1-(3-chloro-1,8-naphthyridine-4-methyl)-azetidin-3-yl)-imino)-erythromycin A], the “MIC S. pyogenes 1079” value in experiment [1] stood at 0.125 µg/mL (≈ 0.148 µM). The “MIC S. pneumo. 1016” value in experiment [2] is under 0.063 µg/mL. In addition, in experiment [3], the “MIC S. pneumo. 1095” value was under 0.063 µg/mL. Moreover, the “MIC S. pneumo. 1175” value in experiment [4] was under 0.063 µg/mL. In addition, in experiment [5], the “MIC H. influenzae 1218” value worked out at 0.5 µg/mL (≈ 0.592 µM).
`CCC1OC(=O)C(C)C(=O)C(C)C(OC2OC(C)CC(N(C)C)C2O)C(C)(OC)CC(C)C(=O)C(C)C2N(C3CN(Cc4ccncc4Br)C3)C(=O)OC12C` (stereo not shown) [Example 1.77, 3-descladinosyl-11,12-dideoxy-6-O-methyl-3-oxo-12,11-(oxycarbonyl-(1-(3-bromopyridine-4-methyl)-azetidin-3-yl)-imino)-erythromycin A]: in experiment [1], the “MIC S. pyogenes 1079” value worked out at 1 µg/mL (≈ 1.19 µM). In experiment [2], the “MIC S. pneumo. 1016” value was under 0.063 µg/mL. Also, in experiment [3], the “MIC S. pneumo. 1095” value is under 0.063 µg/mL. In addition, the “MIC S. pneumo. 1175” value in experiment [4] was under 0.063 µg/mL. The “MIC H. influenzae 1218” value in experiment [5] turned out to be 0.5 µg/mL (≈ 0.597 µM).
As for `CCC1OC(=O)C(C)C(=O)C(C)C(OC2OC(C)CC(N(C)C)C2O)C(C)(OC)CC(C)C(=O)C(C)C2N(C3CN(Cc4ccncc4F)C3)C(=O)OC12C` (stereo not shown) [Example 1.78, 3-descladinosyl-11,12-dideoxy-6-O-methyl-3-oxo-12,11-(oxycarbonyl-(1-(3-fluoropyridine-4-methyl)-azetidin-3-yl)-imino)-erythromycin A], the “MIC S. pyogenes 1079” value in experiment [1] was determined as 4 µg/mL (≈ 5.15 µM). Also, the “MIC S. pneumo. 1016” value in experiment [2] was under 0.063 µg/mL. In addition, in experiment [3], the “MIC S. pneumo. 1095” value is under 0.063 µg/mL. The “MIC S. pneumo. 1175” value in experiment [4] was under 0.063 µg/mL. In addition, the “MIC H. influenzae 1218” value in experiment [5] is 1 µg/mL (≈ 1.29 µM).
